The source of these data is patent EP2970359B1, “FLUORINATED PYRIMIDINE ANALOGS AND METHODS OF USE THEREOF” (Epigenetics Pharma LLC, priority 2013, dated 2014).

“And” between values parts separate entries of the source, which are not always exact repeats. Equal entries are not always repeated. “Also recorded” adds a separate entry of the source. Where two headings read alike, the source gives them in different places. A value given as a limit tells only on which side of the number the result lay.

In one data set the test system is MDA-MB-231. Description: In vitro cytotoxicity (GI50), breast cancer cell line. The note with it: Homo sapiens. How it is done: (§1) The in vitro cytotoxicity was measured in the following cell lines: NCI-H460 (ATCC #HTB-177) (non-small cell lung), HCT-116 (ATCC #CCL-247) (colorectal), HL-60 (ATCC #CCL-240) (leukemia), and MDA-MB-231 (ATCC #HTB-26) (breast). Table 4. Growth Inhibition (GI50) Values (µM) for Selected Cell Lines.

In the next data set the test system is NCI-H460. Kind of data set: In vitro cytotoxicity (GI50), non-small cell lung cancer cell line. The conditions noted are these: Homo sapiens. How it is done: as §1
The next data set concerns HCT-116. Description: In vitro cytotoxicity (GI50), colorectal cancer cell line. The note with it: Homo sapiens. How it is done: as §1
For the next data set, the system named is HL-60. Description: In vitro cytotoxicity (GI50), leukemia cell line. In kind it is cell-based. The note with it: Homo sapiens. How it is done:
as §1

For data set [1] the following is noted: following subcutaneous administration; reported; cited from earlier work.
For data set [2], the system named is L1210. Kind of data set: In vitro cytotoxicity, leukemia cell line. The conditions noted are these: for IC50: Mus musculus, L1210, read-out: In vitro cytotoxicity Leukemia L1210.
A further data set relates to ACHN. Kind of data set: In vitro cytotoxicity, renal cancer cell line. In kind it is cell-based. The note with it: Homo sapiens, Table 1, asterisk not explained.
The next data set deals with OVCAR-8. Kind of data set: In vitro cytotoxicity, ovarian cancer cell line. In kind it is cell-based. The note with it: Homo sapiens, Table 1, asterisk not explained.
For a further data set, the system named is THP-1 cells. Kind of data set: Giemsa stain of treated cells (morphology). In kind it is cell-based. The note with it: compared to vehicle control, FIGURE 10.
Data set [3] relates to Kasumi-1 cells. Kind of data set: Giemsa stain of treated cells (morphology). It counts as cell-based. The conditions noted are these: compared with vehicle control, FIGURE 11.
The conditions of data set [4]: known; cleavage of the base at the 6-position of the cytosine ring; cited from earlier work.
For a further data set, the system named is THP-1 leukemia cells. Description: Growth inhibition of leukemia cell line compared with decitabine. In kind it is cell-based. The conditions noted are these: THP-1, equimolar concentrations; FIGURE 7.
For data set [5], the system named is Kasumi-1 cells. Described as above. The conditions noted are these: Kasumi-1, equimolar concentrations; FIGURE 8. In kind it is cell-based.
The next data set deals with T1, DNMT1 (Homo sapiens, UniProt P26358).
T1 construct: endogenous in cells; host or cells: Kasumi-1
T1 sequence (P26358 whole entry): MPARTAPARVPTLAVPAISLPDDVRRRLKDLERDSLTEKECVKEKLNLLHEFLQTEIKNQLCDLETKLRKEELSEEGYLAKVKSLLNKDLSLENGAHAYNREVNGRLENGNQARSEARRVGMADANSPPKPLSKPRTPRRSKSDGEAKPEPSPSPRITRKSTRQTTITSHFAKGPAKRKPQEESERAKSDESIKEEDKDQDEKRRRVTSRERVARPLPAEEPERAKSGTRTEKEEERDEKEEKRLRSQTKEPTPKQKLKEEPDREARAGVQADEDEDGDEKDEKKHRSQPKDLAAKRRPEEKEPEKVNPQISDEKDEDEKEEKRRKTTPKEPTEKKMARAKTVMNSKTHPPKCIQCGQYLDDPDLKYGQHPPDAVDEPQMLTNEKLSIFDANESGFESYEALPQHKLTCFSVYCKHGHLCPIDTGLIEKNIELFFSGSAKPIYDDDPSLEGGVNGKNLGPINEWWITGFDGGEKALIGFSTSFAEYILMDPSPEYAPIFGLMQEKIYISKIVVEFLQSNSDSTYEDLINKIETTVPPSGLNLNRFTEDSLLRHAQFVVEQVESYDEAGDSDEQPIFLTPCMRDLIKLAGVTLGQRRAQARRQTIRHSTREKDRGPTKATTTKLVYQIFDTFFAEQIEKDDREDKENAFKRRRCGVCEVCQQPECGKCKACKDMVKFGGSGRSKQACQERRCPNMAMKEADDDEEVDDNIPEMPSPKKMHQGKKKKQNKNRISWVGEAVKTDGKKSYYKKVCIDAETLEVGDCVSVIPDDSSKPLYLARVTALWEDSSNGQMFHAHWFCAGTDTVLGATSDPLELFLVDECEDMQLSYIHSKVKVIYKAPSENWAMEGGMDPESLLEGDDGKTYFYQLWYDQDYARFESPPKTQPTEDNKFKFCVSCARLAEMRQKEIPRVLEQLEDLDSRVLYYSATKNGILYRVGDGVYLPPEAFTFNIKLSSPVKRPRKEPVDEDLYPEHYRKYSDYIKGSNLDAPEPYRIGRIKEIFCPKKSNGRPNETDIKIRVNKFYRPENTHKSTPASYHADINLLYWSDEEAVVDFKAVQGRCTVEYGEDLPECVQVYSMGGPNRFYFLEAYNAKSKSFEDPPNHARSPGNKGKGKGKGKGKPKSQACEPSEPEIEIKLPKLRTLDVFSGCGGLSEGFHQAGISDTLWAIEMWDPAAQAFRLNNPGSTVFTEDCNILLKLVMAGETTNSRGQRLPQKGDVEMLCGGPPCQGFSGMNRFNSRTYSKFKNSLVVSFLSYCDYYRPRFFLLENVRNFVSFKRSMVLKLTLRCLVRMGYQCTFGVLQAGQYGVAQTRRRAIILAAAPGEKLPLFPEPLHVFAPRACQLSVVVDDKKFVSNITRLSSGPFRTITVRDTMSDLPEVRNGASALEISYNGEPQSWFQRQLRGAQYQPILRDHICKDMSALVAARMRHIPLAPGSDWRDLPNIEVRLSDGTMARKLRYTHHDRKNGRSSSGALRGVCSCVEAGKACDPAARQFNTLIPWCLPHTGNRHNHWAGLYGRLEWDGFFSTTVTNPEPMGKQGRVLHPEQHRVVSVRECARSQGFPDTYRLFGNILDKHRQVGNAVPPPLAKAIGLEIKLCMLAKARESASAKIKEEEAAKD
Kind of data set: Western blot of DNMT1 in Kasumi-1 cells. It counts as cell-based. The conditions noted are these: two concentrations, FIGURE 9. Background: A western blot detects proteins with antibodies after separation by electrophoresis.

The next data set deals with P388. Description: In vitro cytotoxicity, leukemia cell line. The conditions noted are these: Mus musculus, P388, read-out: In vitro cytotoxicity Leukemia P388*.
Data set [6] concerns DNA methyltransferase (DNMT). Description: In vitro DNA methyltransferase inhibition in HCT-116 cells (EpiQuick DNA Methyltransferase Activity/Inhibition Assay Kit).
A further data set is described as follows: Stability in water. It counts as physicochemical.
Data set [7] concerns L1210. The note with it: Table 3.
The mark [8] stands for this setting: MDA-MB-231, read-out: Growth Inhibition (GI50) MDA-MB-231.
Where [9] appears, read: NCI-H460, read-out: Growth Inhibition (GI50) NCI-H460.
[10] abbreviates: HCT-116, read-out: Growth Inhibition (GI50) HCT-116.
Where [11] appears, read: HL-60, Table 4, read-out: Growth Inhibition (GI50) HL-60.
Where [12] appears, read: MDA-MB-231, read-out: In vitro cytotoxicity Breast MDA-MB-231.
Setting [13] is: NCI-H460, read-out: In vitro cytotoxicity NSCL NCI-H460.
Setting [14] is: HCT-116, read-out: In vitro cytotoxicity Colon HCT-116.

Consider `NC1=NC(=O)N([C@@H]2O[C@H](CO)[C@@H](O)[C@H]2O)CN1` [5,6-dihydro-5-azacytidine, reference compound], for which the GI50 with MDA-MB-231 (setting [8]) was over 31.2 µM; in the data set on NCI-H460 (setting [9]), 4.84 µM; in the data set with HCT-116 (setting [10]), 21.4 µM; in the data set with HL-60 (setting [11]), 0.03 µM.

In general, half-life refers to how long it takes for the measured level to halve. As to `Nc1ncn([C@@H]2O[C@H](CO)[C@@H](O)[C@H]2O)c(=O)n1` [Azacytidine, 5-azacytidine], the GI50 in the data set with HL-60 (setting [11]) was 0.44 µM. Further, the half-life in [1] is 41 min. Further, the IC50 in the data set with L1210 [2] lay within 1.7 to 2.4 µM.

Turning to `Nc1ncn([C@H]2C[C@H](O)[C@@H](CO)O2)c(=O)n1` [Decitabine, 5-azadeoxycytidine, reference compound], the GI50 in the data set with MDA-MB-231 (setting [8]) was over 31.2 µM; with NCI-H460 (setting [9]), 13 µM; with HCT-116 (setting [10]), over 31.2 µM; in the data set on HL-60 (HL-60, read-out: Growth Inhibition (GI50) HL-60), 0.27 µM. Besides, the IC50 in the data set on MDA-MB-231 (setting [12]) is over 62.5 µM; in the data set on NCI-H460 (setting [13]) it was 13 to 44 µM; with HCT-116 (setting [14]), over 62.5 µM; in the data set with ACHN, over 1000 µM; in the data set with OVCAR-8, over 1000 µM. The “morphologic changes (Giemsa stain)” value in the data set on THP-1 cells and in the data set on Kasumi-1 cells [3] was “morphologic changes suggestive of cell differentiation” each time. In [4], the stability in water entry is given as “unstable in water”.

Consider `Nc1ncn([C@@H]2O[C@H](CO)[C@@H](O)C2(F)F)c(=O)n1` [NUC013, 2',2'-difluoro-5-azadeoxycytidine], for which the GI50 in the data set with MDA-MB-231 (setting [8]) was over 31.2 µM; with NCI-H460 (setting [9]) it was 4.39 µM; in the data set with HCT-116 (HCT-116), 4.54 µM; with HCT-116 (setting [10]) it was 4.54 µM; in the data set on HL-60 (setting [11]) it was 1.51 µM. Also, the IC50 is over 62.5 µM in the data set on MDA-MB-231 (setting [12]); 4.39 µM with NCI-H460 (setting [13]); 4.54 µM in the data set with HCT-116 (setting [14]); 0.89 µM in the data set with ACHN; 25.9 µM with OVCAR-8; 1.02 µM in the data set on L1210 [2]. Also, the IC50 in the data set on P388 amounted to 0.48 µM. Besides, the “inhibitory effect on cell growth / cytoreduction compared with decitabine” value is recorded as “stronger inhibitory effect; also recorded: stronger cytoreduction” in the data set with THP-1 leukemia cells and “slightly weaker effect; also recorded: weaker cytoreduction” in the data set on Kasumi-1 cells [5]. For the same molecule, at DNMT1, the “DNMT1 inhibition by Western blot compared with equimolar decitabine” value is “weaker DNMT1 inhibition”. In addition, the “morphologic changes (Giemsa stain)” value in the data set on THP-1 cells and in the data set with Kasumi-1 cells [3] was “morphologic changes suggestive of cell differentiation” each time. Besides, the “Percent Inhibition of DNMT” value in data set [6] (1 µM, 24 hours, HCT-116 cells, one value per experiment (1-4)) was 61.73% and 35.77% and 62.63%. Besides, the “potency as a DNMTI relative to 5-azacytidine” value in [6] (colon cancer cells, FIGURE 6) was “approximately 10 fold”.

For the molecule `NC1=NC(=O)N([C@@H]2O[C@H](CO)[C@@H](O)C2(F)F)CN1` [NUC014, 2',2'-difluoro-5,6-dihydro-5-azadeoxycytidine], the IC50 in the data set with MDA-MB-231 (setting [12]) was over 31.2 µM; in the data set on NCI-H460 (setting [13]) it was over 31.2 µM; in the data set on HCT-116 (setting [14]), over 31.2 µM; with L1210 [2], 90.6 µM. Besides, in the data set “Stability in water”, the “stability in an aqueous environment” value is given as “stable in an aqueous environment”. Further, the “hydrolytic cleavage at the 6-position of the cytosine” value in “Stability in water” (aqueous environment) is given as “does not undergo hydrolytic cleavage”. The “cytotoxicity against leukemia cell line L1210 (in words)” value in the data set with L1210 [2] is on record as “moderate cytotoxicity”.

As to `O=c1ncccn1[C@@H]1O[C@H](CO)[C@@H](O)C1(F)F` [NUC019, 2'-deoxy-2',2'-difluorozebularine], the GI50 with MDA-MB-231 (setting [8]) was found to be 166 µM; in the data set with NCI-H460 (setting [9]), 136 µM; in the data set on HCT-116 (setting [10]), 310 µM.

For the molecule `O=c1ncccn1[C@H]1O[C@H](CO)[C@@H](O)C1(F)F` [NUC020], the GI50 in the data set with MDA-MB-231 (setting [12]) was 213 µM; with NCI-H460 (setting [13]) it was 136 µM; in the data set on HCT-116 (setting [14]), 279 µM; in the data set with L1210 [7], 346 µM.

For `O=c1ncccn1[C@@H]1O[C@H](CO)[C@@H](O)[C@H]1O` [Zebularine, reference compound], the IC50 turned out to be 144 µM in the data set with MDA-MB-231 (setting [12]), 99.1 µM with NCI-H460 (setting [13]), 47.9 µM in the data set with HCT-116 (setting [14]) and 108 µM with L1210 [2].

On to `Nc1ccn([C@@H]2O[C@H](CO)[C@@H](O)C2(F)F)c(=O)n1` [gemcitabine, reference compound], for which the GI50 turned out to be 0.72 µM with MDA-MB-231 (setting [8]), 0.02 µM in the data set with NCI-H460 (setting [9]), 0.01 µM in the data set with HCT-116 (setting [10]) and 0.03 µM in the data set on HL-60 (setting [11]).
